Measured values published in patent publication US20110039700A1, “Method for Improved Utilization of the Production Potential of Transgenic Plants Introduction” (priority 2008, published 2011).

Legend:
Assay type in all cases: in vivo
[1] = system: Spodoptera frugiperda; experiment: Foliar application Spodoptera frugiperda/cotton; conditions: 72 h, read-out: Mortality in % after 3^d
Procedure: Individually potted transgenic cotton plants with Lepidoptera resistance and herbicide resistance (Line DP444 BG/RR) are treated with the desired product against the fall army worm (Spodoptera frugiperda).
(§1) After the desired period of time, the mortality in % is determined. Here 100% means that all caterpillars have been killed; 0% means that none of the caterpillars have been killed.

[2] = system: Spodoptera exigua; experiment: Foliar application Spodoptera exigua/maize; conditions: 96 h, read-out: Mortality in % after 4^d
Procedure: Pots containing in each case 5 transgenic maize plants with Lepidoptera, Coleoptera and/or herbicide resistance are treated against the beet army worm (Spodoptera exigua) in 2 replications.
as §1

[3] = system: Spodoptera frugiperda; experiment: Drench application Spodoptera frugiperda/maize; conditions: soil, 96 h, read-out: Mortality in % after 4^d
Procedure: Pots containing in each case 5 transgenic maize plants with Lepidoptera, Coleoptera and/or herbicide resistance are treated by drenching against the fall army worm (Spodoptera frugiperda) in 2 replications.
as §1

Row | Structure (SMILES) | mortality at 500 ppm [1] [%] | mortality at 100 ppm [2] [%] | mortality at 100 ppm [3] [%]
1 | CCC(C)(C)C(=O)OC1=C(c2ccc(Cl)cc2Cl)C(=O)OC12CCCCC2 [spirodiclofen] | 0 |  | 
2 | Cc1cc(C)c(C2=C(OC(=O)CC(C)(C)C)C3(CCCC3)OC2=O)c(C)c1 [spiromesifen] |  | 0 | 10
